According to patent publication EP0358766A1, “METHOD OF STERILIZING PLANT ANTHERS” (VSESOJUZNY NAUCHNO-ISSLEDOVATELSKY INST. SELSKOKHOZYAISTV. …, priority 1988, dated 1989):

Legend:
[1] = tested on: diploidem Roggen Voskhod 2; test: Field test of gametocidal activity, diploid rye Voskhod 2; assay type: in vivo; conditions: period V, 1% aqueous emulsion, 10 kg/ha in 1000 l water; for Prozentsatz des Ansetzens von Samen bei freier Bestäubung: control = 100
Description: (§1) Die gametozide Aktivität der erfindungsgemäßen Sterilisationsmittel war in Feldversuchen in verschiedenen bodenklimatischen Zonen mit Teilstücken von 10 m^2 Größe in dreibis viermaliger Wiederholung festgestellt. Jedes Sterilisationsmittel wurde mindenstens 5 Jahre lang geprüft.
(§2) Die Entwicklung der Perioden der Organogenese wird zytologisch überwacht. Die Behandlung von Pflanzen mit dem Sterilisationsmittel erfolgt am Anfang der fünften Periode der Organogenese nach Kupermann.
(§3) Mit dem Ährenschieben verwirklicht man die Isolierung von Hauptähren und anderen Stockwerken in Pergametbeuteln. Bei Weizen und Tritikale werden Einzelisolatoren benutzt. Bei Roggen schließt man je 1 Ähre von […] verschiedenen nebeneinander befindlichen Pflanzen unter einen gemeinsamen Isolator ein. Bei Hirse wird jede Rispe getrennt isoliert. Der Sterilitätsprozentsatz (X) für Weizen, Roggen, Tritikale und Hirse wird nach der Formel [formula] ermittelt.
(§4) Die Kornzahl in nicht isolierten Ähren von Kontrollpflanzen wird bedingt für 100 % Ansetzen bei freier Bestäubung angenommen.
(§5) Um zuverlässige Angaben zu erhalten, verwendet man 20 bis 25 Isolatoren je Wiederholung für Weizen und Tritikale, 10 bis 15 Isolatoren jeder Wiederholung für Roggen und Hirse.
Pflanzen von diploidem Roggen Voskhod 2 werden in der V. Periode der Organogenese mit einer 1%igen wäßrigen Emulsion von 1,1,3-Tribrompropan, 1,1,3-Tribrom-4-chlorbutan bzw. 1,1,2,3-Tetrabrompropan behandelt. Die Emulsion enthält 0,5 Masse% C12-C14-Kalziumalkylbenzolsulfonat und 0,01 Masse% Dimethylformamid. Der Verbrauch an Präparat beträgt 10 kg/ha bei 1000 1 Wasserdurchsatz. Die Prüfergebnisse sind in der Tabelle 14 angegeben. Die gleichen Ergebnisse sind bei der Behandlung von diploidem Roggen Voskhod 2 in der VI. Periode der Organogenese erhalten..

[2] = tested on: Winterweizens Sorte Mironowskaya 808; test: Field test of gametocidal activity (anther sterilisation), winter wheat Mironowskaya 808; assay type: in vivo, Weizen; conditions: read-out: Prozentsatz der Sterilität %
[3] = tested on: diploidem Roggen Chulpan; test: Field test of gametocidal activity, diploid rye Chulpan; assay type: in vivo; conditions: for Kornzahl der Ähre bei freier Bestäubung / Kornzahl der Ähre im Isolator / Prozentsatz des Ansetzens von Samen bei freier Bestäubung: Chulpan, period V, 1% aqueous emulsion, 10 kg/ha; for Prozentsatz des Ansetzens von Samen bei freier Bestäubung: control = 100; for pest or weed control at 10000 g/ha: read-out: Prozentsatz der Sterilität
Description: as §1, §2, §3, §4, §5
Pflanzen von diploidem Roggen Chulpan werden in der V.Periode der Organogenese mit einer 1%igen wäßrigen Emulsion von 1,1,3-Tribrompropan, 1,1,3-Tribrom-4-chlorbutan, 1,1,2,3-Tetrabrompropan, 1,2,3-Tribrompropan, 1,2-Dibrompropan, 1,1,3-Tribrom-3-ohlorpropan, 1,2-Dibrom-3--chlorpropan, 1,3-Dibrompropan, 1,1,1,3-Tetrabromheptan, 1,1,3-Tribromheptan bzw. 1,2-Dibromheptan behandelt. Die Emulsion enthält 0,5 Masse% C12-C14-Kalziumalkylbenzolsul- fonat und 0,01 Masse% Dimethylsulfoxid. Der Verbrauch an Präparat beträgt 10 kg/ha. Die Prüfergebnisse sind in der Tabelle 11 angegeben. Die gleichen Ergebnisse sind bei der Behandlung von diploidem Roggen Chulpan in der VI. Periode der Organogenese erhalten.

[4] = tested on: Winterweizens Sorte Mironowskaya 808; test: Field test of gametocidal activity (anther sterilisation), winter wheat Mironowskaya 808; assay type: in vivo, Weizen; conditions: Mironowskaya 808, period V of organogenesis, 2% aqueous emulsion, 20 kg/ha in 1000 l water; for Prozentsatz des Ansetzens von Samen bei freier Bestäubung: control = 100
Description: as §1, §2, §3, §4, §5
Pflanzen des Winterweizens Sorte Mironowskaya 808 werden in der V.Periode der Organogenese durch Zerstäubung der 2%igen wäßrigen Emulsion von 1,1,3-Tribrompropan mit Hilfe einer Rückenspritze behandelt.
Als Emulgierungsmittel setzt man 0,5 Masse% C12-C14--Kalziumalkylbenzolsulphonat zu. Als Adjuvans enthält die Emulsion 0,01 Masse% Dimethylsulfoxid. Der Verbrauch an Präparat beträgt 20 kg/ha bei 1000 Liter Wasserdurchsatz. Als Kontrolle dienen Pflanzen, behandelt mit einem Verdünner ohne Sterilisationsmittel. Die Ergebnisse sind in der Tabelle 1 angegeben.
Der ProzeB wird analog zu dem in Beispiel 1 beschriebenen durchgeführt. Als Sterilisationsmittel verwendet man eine 2%ige waßrige Emulsion von 1,1,3-Tribrom-4-chlorbutan, 1,1,2,3-Tetrabrompropan. Die Prüfergebnisse sind in der Tabelle 1 angegeben.
Der Prozeß wird analog zu dem in Beispiel 1 beschriebenen durchgeführt, nur daß man 1%ige wäßrige Emulsion von 1,2,3-Tribrompropan, 1,2-Dibrompropan, 1,1,3-Tribrom-3--chlorpropan, 1,2-Dibrom-3-chlorpropan, 1,3-Dibrompropan, 1,1,1,3-Tetrabromheptan, 1,1,3-Tribromheptan, 1,2-Dibromheptan verwendet. Die Präparatdosis beträgt 10 kg ha. Die Prüfergebnisse sind in der Tabelle 1 angegeben. Die gleichen Ergebnisse sind bei der Behandlung des Weizens Sorte Mironowskaya 808 in der VI. Periode der Organogenese erhalten.

[5] = tested on: tetraploidem Roggen Belta; test: Field test of gametocidal activity, tetraploid rye Belta; assay type: in vivo; conditions: period V, 1% aqueous emulsion, 6 kg/ha in 600 l water; for Prozentsatz des Ansetzens von Samen bei freier Bestäubung: control = 100
Description: as §1, §2, §3, §4, §5
Pflanzen von tetraploidem Roggen Belta werden in der V.Periode der Organogenese (nach Kupermann) mit einer 1%igen wäßrigen Emulsion von 1,1,3-Tribrompropan, 1,1,3--Tribrom-4-chlorbutan, 1,1,2,3-Tetrabrompropan, 1,2,3-Tribrompropan, 1,1,3-Tribrom-3-chlorpropan bzw. 1,2-Dibrom--3-chlorpropan behandelt.
Die Emulsion enthält 0,5 Masse% C12-C14-Kalziumalk^yl-benzolsulfonat und 0,01 Masse% Dimethylsulfoxid. Der Verbrauch an Präparat beträgt 6 kg/ha bei 600 1 Wasserdurchsatz.Die Prüfergebnisse sind in der Tabelle 7 angegeben. Die gleichen Ergebnisse sind bei der Behandlung von tetraploidem Roggen Belta in der VI. Periode der Organogenese erhalten.

[6] = tested on: Sommerweizens Sorte Moskowskaya 35; test: Field test of gametocidal activity, spring wheat Moskowskaya 35; assay type: in vivo, Weizen; conditions: for Kornzahl der Ähre bei freier Bestäubung / Kornzahl der Ähre im Isolator / Prozentsatz des Ansetzens von Samen bei freier Bestäubung: Moskowskaya 35, period V, 1% aqueous emulsion, 6 kg/ha in 600 l water; for Prozentsatz des Ansetzens von Samen bei freier Bestäubung: control = 100; for pest or weed control at 6000 g/ha: read-out: Prozentsatz der Sterilität
Description: as §1, §2, §3, §4, §5
Pflanzen des Sommerweizens Sorte Moskowskaya 35 werden in der V. Periode der Organogenese (nach Kupermann) mit einer l%igen wäßrigen Emulsion von 1,1,3-Tribrompropan, […], 1,1,2,3-Tetrabrompropan, 1,2,3-Tribrompropan, 1,2-Dibrompropan, 1,1,3-Tribrom-3-chlorpropan, 1,2-Dibrom-3-chlorpropan, 1,3-Dibrompropan, 1,1,1,3-Tetrabromheptan bzw. 1,1,3-Tribromheptan behandelt. Die Emulsion enthält als Emulgierungsmittel 0,5 Masse% C12-C14-Kalzium- alkylbenzolsulfonat und als Adjuvans 0,01 Masse% Dimethylformamid. Der Verbrauch an Präparat beträgt 6 kg/ha bei 600 1 Wasserdurchsatz. Als Kontrolle dienen Pflanzen, behandelt mit dem Verdünner ohne Sterilisationsmittel.
Die Prüfergebnisse sind in der Tabelle 2 angegeben. Die gleichen Ergebnisse sind bei der Behandlung des Sommerweizens Sorte Moskowskaya 35 in der VI.Periode der Organogenese erhalten.

Compound	Kornzahl der Ähre bei freier Bestäubung [1]	Kornzahl der Ähre unter Isolator [1]	Prozentsatz der Sterilität [1]	Prozentsatz des Ansetzens von Samen bei freier Bestäubung [1]	pest or weed control at 1 %, 20000 g/ha [2]	Kornzahl der Ähre bei freier Bestäubung [3]	Kornzahl der Ähre im Isolator [3]	Prozentsatz des Ansetzens von Samen bei freier Bestäubung [3]	pest or weed control at 10000 g/ha [3]	Kornzahl der Ähre bei freier Bestäubung [4]	Kornzahl der Ähre im Isolator [4]	Prozentsatz des Ansetzens von Samen bei freier Bestäubung [4]	Kornzahl der Ähre bei freier Bestäubung [5]	Kornzahl der Ähre im Isolator [5]	Prozentsatz der Sterilität [5]	Prozentsatz des Ansetzens von Samen bei freier Bestäubung [5]	Kornzahl der Ähre bei freier Bestäubung [6]	Kornzahl der Ähre im Isolator [6]	Prozentsatz des Ansetzens von Samen bei freier Bestäubung [6]	pest or weed control at 6000 g/ha [6]
ClCC(Br)CC(Br)Br (stereo not shown) [Beispiel 2, 1,1,3-Tribrom-4-chlorbutan]	52,4	1,0	97,2%	96,0%	97.3%	47,8	1,0	95,4%	98%	41,3	1,1	86,0%	42,6	0,8	98,0%	96,4%	36,5	0,6	95,5%	99.2%
BrCC(Br)C(Br)Br (stereo not shown) [Beispiel 3, 1,1,2,3-Tetrabrompropan]	45,7	0,2	99,6%	83,7%	97.3%	44,3	0,4	88,4%	99.2%	35,1	1,0	94,1%	40,1	0,6	98,5%	90,7%	31,8	0,3	83,2%	99.1%
